± gives the standard deviation of the averaged measurements.
Tests used:
VORINOSTAT = compound: O=C(CCCCCCC(=O)Nc1ccccc1)NO [VORINOSTAT]; test: surviving fraction relative to DMSO-only wells; higher = less growth inhibition; details: exposure time: 5 days
In short: (§1)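 For each tumour cell line, log-phase cells were put into 384-well plates at 250–500 cells per well, then after 24 hours exposed continuously for five days to inhibitors at 0.5, 1, 5, 10, 50, 100, 500 and 1000 nM. Viability was assessed by CellTiter-Glo luminescence, with surviving fraction expressed relative to the median of DMSO-only wells. Lines were screened three times and retained only if replicate Pearson r exceeded 0.7 and median Z' exceeded 0.3.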

IMATINIB = compound: Cc1ccc(NC(=O)c2ccc(CN3CCN(C)CC3)cc2)cc1Nc1nccc(-c2cccnc2)n1 [IMATINIB]; test: as above; details: exposure time: 5 days
In short: as §1

Test System	surviving fraction (VORINOSTAT; 0.5 nM)	surviving fraction (VORINOSTAT; 1 nM)	surviving fraction (VORINOSTAT; 5 nM)	surviving fraction (VORINOSTAT; 10 nM)	surviving fraction (VORINOSTAT; 50 nM)	surviving fraction (VORINOSTAT; 100 nM)	surviving fraction (VORINOSTAT; 500 nM)	surviving fraction (VORINOSTAT; 1000 nM)	surviving fraction (IMATINIB; 0.5 nM)	surviving fraction (IMATINIB; 1 nM)	surviving fraction (IMATINIB; 5 nM)	surviving fraction (IMATINIB; 10 nM)	surviving fraction (IMATINIB; 50 nM)	surviving fraction (IMATINIB; 100 nM)	surviving fraction (IMATINIB; 500 nM)	surviving fraction (IMATINIB; 1000 nM)
MFM223 BREAST	1.05 ± 0.16	1.09 ± 0.047	1.13 ± 0.034	1.04 ± 0.043	1.18 ± 0.028	1.08 ± 0.03	0.738 ± 0.086	0.361 ± 0.029	1.27 ± 0.17	1.24 ± 0.041	1.13 ± 0.057	1.19 ± 0.14	1.19 ± 0.063	1.17 ± 0.1	1.18 ± 0.055	1.15 ± 0.052
MG63 BONE	1.03 ± 0.021	0.98033 ± 0.00058	1.058 ± 0.0097	1.02 ± 0.038	1.081 ± 0.0029	1.121 ± 0.011	1.02 ± 0.019	0.8407 ± 0.0078	1.08 ± 0.028	1.05 ± 0.029	1.1 ± 0.03	1.09 ± 0.035	1.09 ± 0.053	1.08 ± 0.034		
MHM BONE	0.928 ± 0.025	0.9847 ± 0.0087	1.01 ± 0.028	0.981 ± 0.019	1.03 ± 0.011	1 ± 0.019	0.985 ± 0.013	0.843 ± 0.025	1.07 ± 0.032	1.03 ± 0.059	1.09 ± 0.043	1.09 ± 0.045			1.08 ± 0.029	
NCIH441 LUNG	1.12 ± 0.041	1.02 ± 0.089	1.06 ± 0.033	1.04 ± 0.038	1.14 ± 0.02	0.959 ± 0.086	0.939 ± 0.024	0.546 ± 0.045	1.175 ± 0.0068	1.14 ± 0.076		1.14 ± 0.053	1.03 ± 0.12	1.06 ± 0.082		1.16 ± 0.15
NOS1 BONE	1.01 ± 0.05	0.982 ± 0.17	1.04 ± 0.021	1.03 ± 0.056	1.14 ± 0.15	1.07 ± 0.091	0.713 ± 0.089	0.284 ± 0.0091	1.18 ± 0.11	1.12 ± 0.041	1.2 ± 0.085	1.13 ± 0.11		1.06 ± 0.15	0.883 ± 0.14	0.898 ± 0.039

— the supplement of paper PMC6045584
